± gives the expanded uncertainty stated by the source.
Test: xn = mol fraction of the nth substance listed
Conditions: 100 kPa, Liquid; for viscosity: Capillary tube (Ostwald / Ubbelohde) method; for speed of sound: Frequency=2 MHz, Linear variable-path acoustic interferometer; for mass density: Vibrating tube method

Nc1cccc(Cl)c1 [3-chlorobenzenamine] + Clc1ccccc1
Conditions	mass density [kg/m3]	speed of sound [m/s]	viscosity [mPa·s]
303.15 K, x1 = 0.0895	1106.11 ± 20	1265.6 ± 7.8	1.126 ± 0.1
303.15 K, x1 = 0.1802	1116.69 ± 20	1284.1 ± 7.9	1.516 ± 0.1
303.15 K, x1 = 0.2935	1129.74 ± 20	1308.9 ± 8	1.975 ± 0.1
303.15 K, x1 = 0.3821	1139.77 ± 20	1329.6 ± 8.1	2.317 ± 0.1
303.15 K, x1 = 0.4956	1152.34 ± 20	1358.1 ± 8.3	2.738 ± 0.1
303.15 K, x1 = 0.5823	1161.75 ± 20	1381.5 ± 8.5	3.046 ± 0.1
303.15 K, x1 = 0.6923	1173.48 ± 20	1413.3 ± 8.6	3.417 ± 0.1
303.15 K, x1 = 0.8012	1184.88 ± 20	1447.5 ± 8.8	3.756 ± 0.1
303.15 K, x1 = 0.8856	1193.58 ± 20	1476 ± 9	3.991 ± 0.1
303.15 K, x1 = 1	1205.32 ± 20	1517.5 ± 9.3	4.255 ± 0.1
308.15 K, x1 = 0.0895	1100.43 ± 20	1243.5 ± 7.6	1.059 ± 0.1
308.15 K, x1 = 0.1802	1111.15 ± 20	1262.3 ± 7.7	1.418 ± 0.1
308.15 K, x1 = 0.2935	1124.32 ± 20	1287.4 ± 7.9	1.835 ± 0.1
308.15 K, x1 = 0.3821	1134.43 ± 20	1308.4 ± 8	2.145 ± 0.1
308.15 K, x1 = 0.4956	1147.15 ± 20	1337.4 ± 8.2	2.522 ± 0.1
308.15 K, x1 = 0.5823	1156.68 ± 20	1361.3 ± 8.3	2.797 ± 0.1
308.15 K, x1 = 0.6923	1168.55 ± 20	1393.9 ± 8.5	3.126 ± 0.1
308.15 K, x1 = 0.8012	1180.09 ± 20	1429 ± 8.7	3.421 ± 0.1
308.15 K, x1 = 0.8856	1188.91 ± 20	1458.3 ± 8.9	3.623 ± 0.1
308.15 K, x1 = 1	1200.75 ± 20	1501.2 ± 9.2	3.842 ± 0.1
313.15 K, x1 = 0.0895	1095.5 ± 20	1223.6 ± 7.5	0.9961 ± 0.1
313.15 K, x1 = 0.1802	1106.27 ± 20	1242.2 ± 7.6	1.322 ± 0.1
313.15 K, x1 = 0.2935	1119.45 ± 20	1267.1 ± 7.8	1.697 ± 0.1
313.15 K, x1 = 0.3821	1129.56 ± 20	1288 ± 7.9	1.972 ± 0.1
313.15 K, x1 = 0.4956	1142.29 ± 20	1316.8 ± 8.1	2.306 ± 0.1
313.15 K, x1 = 0.5823	1151.83 ± 20	1340.5 ± 8.2	2.548 ± 0.1
313.15 K, x1 = 0.6923	1163.77 ± 20	1373.1 ± 8.4	2.839 ± 0.1
313.15 K, x1 = 0.8012	1175.35 ± 20	1408.2 ± 8.6	3.097 ± 0.1
313.15 K, x1 = 0.8856	1184.21 ± 20	1437.5 ± 8.8	3.264 ± 0.1
313.15 K, x1 = 1	1196.02 ± 20	1480.3 ± 9	3.43 ± 0.1
318.15 K, x1 = 0.0895	1090.31 ± 20	1198.7 ± 7.4	0.9397 ± 0.1
318.15 K, x1 = 0.1802	1101.12 ± 20	1217.7 ± 7.5	1.238 ± 0.1
318.15 K, x1 = 0.2935	1114.34 ± 20	1243.1 ± 7.6	1.57 ± 0.1
318.15 K, x1 = 0.3821	1124.49 ± 20	1264.5 ± 7.8	1.808 ± 0.1
318.15 K, x1 = 0.4956	1137.26 ± 20	1294.2 ± 7.9	2.098 ± 0.1
318.15 K, x1 = 0.5823	1146.85 ± 20	1318.8 ± 8.1	2.308 ± 0.1
318.15 K, x1 = 0.6923	1158.87 ± 20	1352.6 ± 8.3	2.557 ± 0.1
318.15 K, x1 = 0.8012	1170.53 ± 20	1389.2 ± 8.5	2.773 ± 0.1
318.15 K, x1 = 0.8856	1179.42 ± 20	1419.9 ± 8.7	2.908 ± 0.1
318.15 K, x1 = 1	1191.25 ± 20	1464.8 ± 8.9	3.022 ± 0.1

— the NIST ThermoML archive (doi:10.1016/j.jct.2016.05.015)
